Results as given in PMC9663686, “Proline, hydroxyproline, and pyrrolidone carboxylic acid derivatives as highly efficient but reversible transdermal permeation enhancers” (Scientific Reports, 2022).
Converted amounts (≈) assume the structure as drawn. Marks after values point to notes of the source that are not given here.

Columns and labels:
human skin [1] = assay: Transepidermal water loss (TEWL) of human skin in vitro, reversibility; conditions: for TEWL 1 h after the sample had been removed / TEWL 4 h after the sample had been removed / TEWL 8 h after the sample had been removed / TEWL 12 h after the sample had been removed / TEWL 24 h after the sample had been removed: 24-h application of 1% enhancer (1% Azone, 5% SDS) in 60% PG; for TEWL 1 h after the sample had been removed / TEWL 4 h after the sample had been removed / TEWL 8 h after the sample had been removed / TEWL 12 h after the sample had been removed / TEWL 24 h after the sample had been removed / TEWL before sample application (baseline): mean ± SEM; for reversibility of TEWL increase: after 24-h application, followed 24 h after removal
Source text: (§1) We further investigated the direct effects of the selected enhancers on the skin barrier assessed by TEWL and the electrical impedance of human skin in vitro. TEWL is a method commonly used in dermatology[38] to study, for example, the irritant potential of chemicals, skin barrier recovery, or effect of topical formulations, and permeation enhancers[17],[21],[41]–[44]. Electrical impedance measures the opposition of the skin to alternating electrical current and is inversely proportional to the flux of ions. Thus, increased TEWL or decreased impedance indicates a barrier impairment[45],[46]. Electrical impedance or conductance measurements have been used to screen new enhancers or assess the irritation potential of compounds[13],[15],[17],[21],[32],[44],[47]–[50]. Both TEWL and impedance can distinguish between reversible and irreversible effects of enhancers on skin permeability[17],[21],[40],[44],[51].
(§2) Human skin was mounted in Franz diffusion cells in the same way as for the permeation studies. After 1-h equilibration, basal TEWL and impedance values were recorded. Then, 1% enhancer in 60% PG, 60% PG as a negative control, 1% Azone in 60% PG, or 5% SDS in 60% PG as positive (irreversible) controls was applied on the skin (100 µl/cm^2) for 24 h. The residual sample was washed with PBS and gently blotted dry. At 1, 4, 8, 12, and 24 h after sample removal, TEWL, and impedance values were recorded. TEWL was measured using AquaFlux AF 200 (Biox Systems Ltd, London, UK), employing the condenser-chamber measurement method at 26 ± 1.0 °C and 43 ± 3% relative air humidity. Electrical impedance was measured by LCR meter 4080 (Conrad electronic, Hirschau, Germany, measuring range 20 Ω–10 MΩ, error at kΩ values < 0.5%) operated in parallel mode with an alternating frequency of 120 Hz, which was also used in our previous work[21],[44].
(§3) Samples were removed from the skin after 24 h, and TEWL and impedance values were recorded in predetermined time intervals (1, 4, 8, 12, and 24 h after sample removal). Data are presented as the means ± SEM; n ≥ 3. * statistically significant difference compared to the baseline value before the sample application at p < 0.05. ^+ statistically significant compared to the value 1 h after the sample removal at p < 0.05.^ ≠ statistically significant compared to the control (60% PG without enhancer) at the same time point, at p < 0.05.

human skin [2] = assay: Electrical impedance of human skin in vitro, reversibility; conditions: for impedance 1 h after the sample had been removed / impedance 4 h after the sample had been removed / impedance 8 h after the sample had been removed / impedance 12 h after the sample had been removed / impedance 24 h after the sample had been removed: 24-h application of 1% enhancer (1% Azone, 5% SDS) in 60% PG; for impedance 1 h after the sample had been removed / impedance 4 h after the sample had been removed / impedance 8 h after the sample had been removed / impedance 12 h after the sample had been removed / impedance 24 h after the sample had been removed / impedance before sample application (baseline): mean ± SEM; for recovery of skin impedance after sample removal: after 24-h application, followed 24 h after removal
Source text: as §1, §2, §3

human skin [3] = conditions: 5% DC in PBS/isopropyl alcohol 9:1 on human skin; cited from earlier work
rat skin = conditions: […] DC in ethanol/glycerol/water 6:1:3 on rat skin; cited from earlier work
[4] = Diclofenac permeation through human skin in Franz diffusion cells with co-applied enhancer; format: in vitro ADME; conditions: pH 7.4; 3% DC in 60% PG, no enhancer; human skin in vitro; read-out: permeability coefficient of DC (converted)
Description: (§4) Donor samples for reversibility and infrared studies contained 1% enhancer in 60% PG. All samples were thoroughly mixed, incubated at 32 °C for 24 h, and, if needed, carefully resuspended before applying on the skin. The effects of the studied enhancers on the solubility of model drugs were assessed as described previously.
(§5) The permeation-enhancing potencies of the prepared compounds were evaluated on human skin in Franz diffusion cells. Human skin was slowly thawed, cut into 2 × 2 cm pieces, fixed in Teflon holders with 1-cm^2 circular permeation areas, and mounted into Franz cells epidermal side up. The acceptor compartment (15.9 ± 0.1 ml) was filled with phosphate-buffered saline at pH 7.4 with 0.005% gentamicin (PBS) and stirred at 32 °C throughout the experiment. The skin integrity was checked by electrical impedance (any skin sample with the impedance < 10 kΩ was excluded). Then, 100 µl of a donor sample (infinite dose) was applied to the skin and covered with a glass slide. Acceptor phase samples (300 µl) were collected at predetermined time intervals for 48 h, to reach steady-state and were replaced by the same volume of fresh PBS. […] The drug concentrations were measured by HPLC (see supplementary data).
(§6) The flux of the model drug through the skin Jss (µg/cm^2/h) was calculated from the linear region of this plot. The enhancement ratio (ER) was calculated as the ratio of flux with and without an enhancer.
(§7) After the permeation experiment, the cells were dismounted, the skin was carefully washed with PBS, and the permeation area of the skin (1 cm^2) was punched off. After heating the skin fragments to 80 °C for 1 min, the epidermis (E) was peeled off the dermis (D), individually weighed and extracted by 1 and 2 ml, respectively, of an extraction solvent (identical to the mobile phase for the drug HPLC analysis, see supplementary data) for 24 h. The drug concentration was measured by HPLC (see supplementary data).

[5] = Solubility of model drugs (donor sample, PBS); conditions: for solubility: pH 7.4
Description: as §4, §5

human skin [6] = assay: Diclofenac permeation through human skin in Franz diffusion cells with co-applied enhancer; format: in vitro ADME; conditions: 1% enhancer co-applied with 3% DC in 60% PG; for CDERMIS, diclofenac concentration in dermis / CEPIDERMIS, diclofenac concentration in epidermis: after 48 h permeation, mean ± SEM; for ER, enhancement ratio of diclofenac flux: human skin in vitro
Description: as §4, §5, §6, §7

human skin [7] = assay: Theophylline permeation through human skin in Franz diffusion cells with co-applied enhancer; format: in vitro ADME; conditions: for CDERMIS, theophylline concentration in dermis / CEPIDERMIS, theophylline concentration in epidermis / ER, enhancement ratio of theophylline flux (fold increase in flux over control): 1% enhancer co-applied with 5% TH in 60% PG; for CDERMIS, theophylline concentration in dermis / CEPIDERMIS, theophylline concentration in epidermis: after 48 h permeation, mean ± SEM; for ER, enhancement ratio of theophylline flux (fold increase in flux over control): human skin in vitro
Description: The prepared enhancers were applied at 1% in 60% aqueous propylene glycol (PG) to human skin in vitro; 60% PG was used as a negative control. PG was selected for its synergy with amphiphilic enhancers. Each model drug was co-applied with the enhancer at infinite dose.
as §4, §5, §6, §7

[8] = DC: free acid form; quoted without reference; cited from earlier work

| SMILES | CDERMIS, diclofenac concentration in dermis (human skin [6]) | CEPIDERMIS, diclofenac concentration in epidermis (human skin [6]) | ER, enhancement ratio of diclofenac flux (human skin [6]) | CDERMIS, theophylline concentration in dermis (human skin [7]) | CEPIDERMIS, theophylline concentration in epidermis (human skin [7]) | ER, enhancement ratio of theophylline flux (fold increase in flux over control) (human skin [7]) | also measured |
| --- | --- | --- | --- | --- | --- | --- | --- |
| CCCCCCCCCCCCN1CCCCCC1=O [Azone, N-dodecylazepan-2-one, reference compound] |  |  |  |  |  |  | TEWL 1 h after the sample had been removed (human skin [1]): 67.7 ± 1.3*^≠ g/m^2/h; TEWL 4 h after the sample had been removed (human skin [1]): 60.7 ± 1.7*^≠ g/m^2/h; TEWL 8 h after the sample had been removed (human skin [1]): 51.9 ± 1.6*^≠+ g/m^2/h; TEWL 12 h after the sample had been removed (human skin [1]): 48.8 ± 2.3*^≠+ g/m^2/h; TEWL 24 h after the sample had been removed (human skin [1]): 48.3 ± 1.4*^≠+ g/m^2/h; reversibility of TEWL increase (human skin [1]): lack of TEWL and impedance reversibility; TEWL before sample application (baseline) (human skin [1]): 28.2 ± 3.6 g/m^2/h; impedance 1 h after the sample had been removed (human skin [2]): 2.6 ± 0.4* kΩ×cm^2; impedance 4 h after the sample had been removed (human skin [2]): 7.8 ± 0.4*^≠ kΩ×cm^2; impedance 8 h after the sample had been removed (human skin [2]): 11.2 ± 0.2*^≠+ kΩ×cm^2; impedance 12 h after the sample had been removed (human skin [2]): 12.2 ± 0.4*^≠+ kΩ×cm^2; impedance 24 h after the sample had been removed (human skin [2]): 12.4 ± 0.8*^≠+ kΩ×cm^2; recovery of skin impedance after sample removal (human skin [2]): lack of TEWL and impedance reversibility; impedance before sample application (baseline) (human skin [2]): 25.1 ± 2.0 kΩ×cm^2 |
| O=C(O)Cc1ccccc1Nc1c(Cl)cccc1Cl [DC, diclofenac] |  |  |  |  |  |  | permeability coefficient of DC (human skin [3]): 2.2 × 10^–5 cm/h; permeability coefficient of DC (rat skin): 11.0 × 10^–5 cm/h; Papp at 48 h, 3 % [4]: 0.0144 ×10⁻⁶ cm/s; solubility ([5]; phosphate-buffered saline): 9450 ± 150 µg/mL (≈ 31.9 mM) |
| CCCCCCCCCCCCOC(=O)C1CC(O)CN1C(C)=O (stereo not drawn) [Hyp2] | 0.90 ± 0.08 µg/mg | 9.22 ± 0.32 µg/mg | 3 | 0.20 ± 0.03 µg/mg | 2.87 ± 0.45 µg/mg | 10 |  |
| CCCCCCCCCCCCOC(=O)C1CC(O)CN1C(=O)CC (stereo not drawn) [Hyp3] | 0.97 ± 0.07 µg/mg | 9.18 ± 0.62 µg/mg | 4 | 0.25 ± 0.07 µg/mg | 3.64 ± 0.85 µg/mg |  | ER of epidermal TH concentration (human skin [7]; 1% enhancer with 5% TH in 60% PG, over control): 1.9 |
| CCCCCCCCCCCCOC(=O)C1CC(O)CN1C(=O)CCC (stereo not drawn) [Hyp4] | 1.01 ± 0.05 µg/mg | 8.99 ± 1.23 µg/mg | 4 | 0.39 ± 0.07 µg/mg | 1.96 ± 0.56 µg/mg | 16 |  |
| CCCCCCCCCCCCOC(=O)C1CC(O)CN1C(=O)CCCC (stereo not drawn) [Hyp5] | 1.02 ± 0.11 µg/mg | 9.84 ± 1.22 µg/mg | 5 | 0.23 ± 0.03 µg/mg | 1.45 ± 0.41 µg/mg | ~19 |  |
| CCCCCCCCCCCCOC(=O)C1CCC(=O)N1C(C)=O (stereo not drawn) [PCA2] |  |  |  | 0.22 ± 0.03 µg/mg | 2.33 ± 0.26 µg/mg | 12 |  |
| CCCCCCCCCCCCOC(=O)C1CCC(=O)N1C(=O)CC (stereo not drawn) [PCA3] |  |  |  | 0.28 ± 0.04 µg/mg | 2.99 ± 0.37 µg/mg | 9 |  |
| CCCCCCCCCCCCOC(=O)C1CCC(=O)N1C(=O)CCC (stereo not drawn) [PCA4] |  |  |  | 0.30 ± 0.14 µg/mg | 2.53 ± 0.23 µg/mg | 5 |  |
| CCCCCCCCCCCCOC(=O)C1CCC(=O)N1C(=O)CCCC (stereo not drawn) [PCA5] |  |  |  | 0.23 ± 0.07 µg/mg | 2.14 ± 0.44 µg/mg | 5 |  |
| CCCCCCCCCCCCOC(=O)C1CCCN1C(=O)CCCC (stereo not drawn) [Pro5] | 1.30 ± 0.25 µg/mg | 8.51 ± 1.39 µg/mg |  | 0.26 ± 0.02 µg/mg | 0.83 ± 0.12 µg/mg | 24 |  |
| CCCCCCCCCCCCOC(=O)C1CCCN1C(=O)CCCCC (stereo not drawn) [Pro6] | 1.44 ± 0.31 µg/mg | 10.26 ± 0.38 µg/mg |  | 0.22 ± 0.03 µg/mg | 1.14 ± 0.19 µg/mg | 16 |  |
| CCCCCCCCCCCCOC(=O)C1CCCN1C(=O)CCCCCC (stereo not drawn) [Pro7] | 1.30 ± 0.75 µg/mg | 8.63 ± 3.11 µg/mg | 5 | 0.26 ± 0.04 µg/mg | 0.95 ± 0.09 µg/mg | 15 |  |
| CCCCCCCCCCCCOC(=O)C1CCCN1C(=O)CCCCCCC (stereo not drawn) [Pro8] | 1.08 ± 0.28 µg/mg | 10.20 ± 0.96 µg/mg | 3 | 0.19 ± 0.02 µg/mg | 0.89 ± 0.25 µg/mg | 9 |  |
| CCCCCCCCCCCCOS(=O)(=O)[O-].[Na+] [SDS, sodium dodecyl sulfate, reference compound] |  |  |  |  |  |  | TEWL 1 h after the sample had been removed (human skin [1]): 47.3 ± 2.2*^≠ g/m^2/h; TEWL 4 h after the sample had been removed (human skin [1]): 45.8 ± 4.4* g/m^2/h; TEWL 8 h after the sample had been removed (human skin [1]): 38.7 ± 3.1* g/m^2/h; TEWL 12 h after the sample had been removed (human skin [1]): 38.2 ± 2.6* g/m^2/h; TEWL 24 h after the sample had been removed (human skin [1]): 38.0 ± 2.3* g/m^2/h; reversibility of TEWL increase (human skin [1]): lack of TEWL and impedance reversibility; TEWL before sample application (baseline) (human skin [1]): 26.1 ± 2.9 g/m^2/h; impedance 1 h after the sample had been removed (human skin [2]): 1.9 ± 0.2* kΩ×cm^2; impedance 4 h after the sample had been removed (human skin [2]): 3.8 ± 0.2*^≠ kΩ×cm^2; impedance 8 h after the sample had been removed (human skin [2]): 5.0 ± 0.3*^≠ kΩ×cm^2; impedance 12 h after the sample had been removed (human skin [2]): 5.6 ± 0.3*^≠ kΩ×cm^2; impedance 24 h after the sample had been removed (human skin [2]): 6.4 ± 0.3*^≠ kΩ×cm^2; recovery of skin impedance after sample removal (human skin [2]): lack of TEWL and impedance reversibility; impedance before sample application (baseline) (human skin [2]): 26.7 ± 0.7 kΩ×cm^2 |
| Cn1c(=O)c2[nH]cnc2n(C)c1=O [TH, theophylline] |  |  |  |  |  |  | logP [8]: ~ 0; solubility at 24 h [5]: ~25000 µg/mL (≈ 139 mM); solubility [5]: 7650 ± 20 µg/mL (≈ 42.5 mM) |
